Data on seven compounds can be found in patent publication US20160374368A9, “Mimicking the Metabolic Effect of Caloric Restrictions by Administration of Glucose Anti-Metabolites to Enhance Positive Response in a Mammal” (The Iams Company, priority 2013, published 2016).

The test system of series [1] is hexokinase. Particulars: cited from earlier work.
The conditions of series [2]: cited from earlier work.
The subject of series [3] is cats. As to the kind of experiment: Behavioural assessment of play motivation in cats (weighted swing door). The series is classed as in vivo. Particulars: vs same diets without MH. The source says:
Twenty cats (N=20) of similar age (˜2.5 years), and split 10 female (5 lean and 5 moderately overweight) and 10 male (5 lean and 5 moderately overweight). To effectively test the effects of MH on energy metabolism dietary energy needs, intended to maintain weight, were provided equally between animals on a body weight basis; therefore, each cat received 45 kcal ME/kg body weight/d (females) and 50 kcal ME/kg body weight/d (males).
For two weeks prior to the initiation of the study cats were fed Iams® Original Chicken. Diets were presented in kibble form and cats were fed individually at 7:00 am each day and will be permitted 60 minutes to eat during food offerings. This feeding protocol were maintained throughout the entire study except on days in which fasted blood/calorimetry samples are obtained as cats were fed following the sampling period which was no later than 9:00 am. […]
Two walled stalls (each measuring: 100 cm W×100 cm L×75 cm H; Quenn City polymers, Dayton, Ohio), one classified as the start box and the other the goal box, each with a plexi-glass roof containing a 1 cm diameter hole in the center, were placed next to each other and connected via a swing door (23 cm W×18 cm H). […] Cats were assessed two times per dietary treatment on day 14 and again on day 37 at approximately 5 hrs post feeding. […]

For series [4] the following is noted: injected, rats, cited from earlier work.
The test system of series [5] is Labrador Retrievers. Nature of the series: Annual kennel assessment of affective behavior in dogs fed control diet or control diet+MH. It counts as in vivo. The text has this:
Annual kennel assessments (period of 5 years) have been conducted on dogs fed a control diet or a control diet+MH. This assessment included two cohorts of Labrador Retrievers. Cohort 1 included 39 neutered Labrador Retrievers, 12 male and 27 female, ranged in age from 5.1 to 8.2 years old at the beginning of the test-feeding period (mean age at the beginning of the study 6.7 years). Cohort 2 included 41 neutered Labrador Retrievers, 12 males and 29 females ranged in age from 2.0 to 6.1 years old at the beginning of the test feeding period (mean age at the beginning of the study 4.0 years). Each cohort was fed a control diet or a test diet where the only differences was inclusion of mHep-enriched avocado extract targeted to supply 2 mg/kg body weight of MH. All researchers, lab assistants, and assessors were blinded to the feeding groups. Dogs were assessed during August and September each year. Each scorer was instructed to operate independently. Trained assessors were categorized as either familiar or unfamiliar to the dogs. The familiar assessors were people that worked with the dogs on a regular basis. […] Each assessing group was comprised of a handler and two scorers. All dogs were assessed with three people in the room with at least one familiar scorer in each group. This created a total of three possible conditions: familiar handler, two familiar scorers (Fam/Fam); familiar handler, one unfamiliar scorer, one familiar scorer (Fam/Unfam); unfamiliar handler, one unfamiliar scorer, one familiar scorer (Unfam/Unfam). The behaviors are outlined in Table 1. Calculating score: Assessors were asked to score dogs on a scale from 1-5 including half scores. For the behavior items, a score of 1 signified “Fails To Do” while 5 signified “Excellent”. For the demeanor items, a score of 1 signified “Strongly” while a score of 5 signified “Not at All”. All necessary items were reverse scored to allow higher scores to indicate a more favorable score and lower score to indicate a less favorable score. The sums of the corresponding behavior and demeanor items were used to calculate the score for each of the two behavior components. These scores were used to compare changes across years and between groups. [table]

Series [6] relates to Labrador Retrievers. As to the kind of experiment: Serum Trp:LNAA ratio in dogs fed control diet or control diet +MH (HPLC amino acid analysis). The series is classed as in vivo. Particulars: 200 ppm MH in the diet. The text has this:
Brain serotonin is known to influence the mood. Serotonin is synthesized in the brain from tryptophan, which uptake into the brain is dependent on the plasma ratio of tryptophan to the sum of other large neutral amino acids (Trp/LNAA). Other large amino acids include leucine, isoleucine, valine, phenylalanmine and tyrosine. It is well accepted that carbohydrate rich diets increase this ration and protein rich diets decrease the ration, in other words, when there is decrease in insulin sensitivity and a greater glycemic response, greater Trp/LNAA ratios are expected. Blood samples for amino acid analysis were collected from a total of 51 dogs fed a control diet or a control diet +MH. The blood samples were collected from two cohorts of Labrador Retrievers. Cohort 1 included 19 neutered Labrador Retrievers, 5 male and 14 female, ranged in age from 12.6 to 15.7 years old at the time of sampling. Cohort 2 included 32 neutered Labrador Retrievers, 9 males and 23 females ranged in age from 8.3 to 12.5 years old at the time of sampling. Each cohort was fed similar a control diet or a test diet where the only differences was inclusion of mHep enriched avocado juice concentrate targeted to supply 200 ppm MH in the diet. The avocado juice concentrate was derived from whole fruit (flesh, peel and pit) avocados. […]

For series [7] the following is noted: cited from earlier work. The source holds these as a separate data set.
The test system of series [8] is isolated rat hepatocytes. Particulars: cited from earlier work.
For series [9] the following is noted: injected into a rat; cited from earlier work.
The subject of series [10] is rodents. Particulars: cited from earlier work.
The mark [11] stands for this setting: 2 mg/kg body weight MH, vs control diet.

The structures appear in SMILES notation.

For `O=P(O)(O)OC[C@H]1OC[C@H](O)[C@@H](O)[C@@H]1O` [1,5-anhydro-D-glucitol-6-phosphate], the inhibition of hexokinase entry in series [1] was “allosteric (non-competitive) inhibitor of hexokinase”.
As for `O=C(CO)[C@@H](O)[C@@H](O)[C@H](O)[C@H](O)CO` [mannoheptulose], in series [2] (after oral administration), the “mannoheptulose ingested appearing in urine” value is recorded as “About 5%”. For the same compound, in series [2] (doses of 10 grams, humans, orally), the “safety of oral doses” value is listed as “safely administered”. For the same compound, in series [3], the motivation to play result is reported as “significantly greater motivation to play”. The “remained in the body” value in [4] (a day after the injection) is recorded as 5%. In series [4], the excreted unchanged is 66% and the metabolized is recorded as 29%. Also, the “comfort in new areas score” value in series [5] (2 mg/kg body weight MH, unfamiliar/unfamiliar condition, vs control diet) was “significantly better response”. For the same compound, in series [5] (setting [11]), the “score for ability to handle new areas” value is reported as “higher scores” and the “score for social interaction” value is recorded as “higher scores”. In addition, the “social interaction score, difference between groups” value in series [5] (fam/fam or unfam/unfam condition) is recorded as “not different”. The “Trp:LNAA concentrations, fasting vs 4 hrs post fed” value in series [6] (Cohort 1 (older dogs), P>0.05) is given as “no differences”. Besides, the “Trp:LNAA concentrations, fasting vs 4 hrs post fed” value in series [6] (old and young cohorts pooled) is reported as “no differences”.
Regarding `CO[C@@H]([C@H](O)[C@H](O)CO)[C@@H](O)C=O` [3-O-methylglucose], the “metabolism of the analog” value in series [7] (in contrast with 2-deoxy-D-glucose) is recorded as “not metabolized”. Further, in series [7] (rats), the “responses to administration (prevention of glucose utilization as energy source) relative to 2-deoxyglucose” value was “about seven times weaker than those to 2-deoxyglucose”.
`OC[C@H]1O[C@H](CO)[C@@H](O)[C@@H]1O` [2,5-Anhydro-D-mannitol, 2,5-anhydro-D-mannitol]: in series [8], the “effect on glucose formation and utilization” value is “interfere in glucose formation and utilization”.
Regarding `O=C[C@H](O)[C@@H](O)[C@H](O)[C@H](S)CO` [5-Thioglucose, 5-thio-D-glucose], the “excreted unchanged in urine” value in [9] is recorded as 97%.
For `OC[C@H]1OC[C@H](O)[C@@H](O)[C@@H]1O` [1,5-Anhydro-D-Glucitol, 1,5-anhydro-D-glucitol], the “enzymatic conversion to the 6-phosphate” value in series [1] (compared with 2-deoxy-glucose) was “less efficient than that of 2-deoxy-glucose”.
Consider `O=CC[C@@H](O)[C@H](O)[C@H](O)CO` [2-deoxy-D-glucose], for which the “side effects and toxicity” value in [10] (high doses) was “significant untoward side effects and toxicity have been observed”. Also, in series [10] (rodents, long-term, lower dose), the “mimicking metabolic hallmarks of caloric restriction” value was “can mimic some of the major metabolic hallmarks of caloric restriction and enhanced longevity, including reduced body temperature, weight loss, and lower fasting insulin levels”.
